From article PMC11575553 (Chemical Science, 2024)

tested on: SARS-CoV-2 dimerization loop (DL) RNA; format: binding; settings: 2.5 μM peptide; 0.010 M HEPES pH 7.0, 0.30 M NaCl; average of two replicates

Substance	SPR response relative to parent peptide MG-FSS-m1
MGCKQLAKQL(pCaaF)Y (sidechain bridge or staple) [Peptide R4A]	comparable
MGCAQLRKQL(pCaaF)Y (sidechain bridge or staple) [Peptide K1A]	comparable
MGCKQARKQL(pCaaF)Y (sidechain bridge or staple) [Peptide L3A]	substantially lower
MGCKQLRKAL(pCaaF)Y (sidechain bridge or staple) [Peptide Q6A]	substantially higher
MGCKQLRAQL(pCaaF)Y (sidechain bridge or staple) [Peptide K5A]	comparable
MGCKALRKQL(pCaaF)Y (sidechain bridge or staple) [Peptide Q2A]	substantially lower
MGCKQLRKQA(pCaaF)Y (sidechain bridge or staple) [Peptide L7A]	lower
